Measurements as given in PubChem BioAssay AID588615 (The Scripps Research Institute Molecular Screening Center, 2011).
The source made the active and inactive calls.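 The calls were made as follows: active = p38 protein level shifted by 30% or more versus DMSO-treated cells, either down or up; inactive = shift in p38 protein level below 30%.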

What was measured:
[1] = molecular target: Mitogen-activated protein kinase 14 (Homo sapiens) (UniProt Q16539); assay: p38 MAPK abundance shift in treated cells – DLD1 cells, chemiluminescent western blot, powder samples, counter-screen for KLF5 inhibitor project, late-stage follow-up (AID 588615); details: DLD-1 cells, p38 western blot, 24 h; at 10 µM; stronger effect = higher value
Chain of Mitogen-activated protein kinase 14 (Homo sapiens) (Q16539 whole entry, looked up): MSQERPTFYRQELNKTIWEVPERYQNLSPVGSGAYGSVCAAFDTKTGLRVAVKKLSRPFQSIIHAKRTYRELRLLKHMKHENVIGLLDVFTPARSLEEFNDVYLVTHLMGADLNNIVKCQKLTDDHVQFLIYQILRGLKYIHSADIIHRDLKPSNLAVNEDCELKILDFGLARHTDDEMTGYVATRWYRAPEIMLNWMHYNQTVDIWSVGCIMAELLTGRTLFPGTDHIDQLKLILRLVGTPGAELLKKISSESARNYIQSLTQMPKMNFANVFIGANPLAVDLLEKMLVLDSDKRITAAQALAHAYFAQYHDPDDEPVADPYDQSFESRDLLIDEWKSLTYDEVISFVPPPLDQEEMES

[2] = system: DLD-1 cells, p38 western blot, 24 h; assay: as above; details: measured here: p38 band fold change vs DMSO; at 10 µM

Question: CN(C(=O)COC(=O)/C=C/c1cccc([N+](=O)[O-])c1)C1CCS(=O)(=O)C1 (centres undefined) was tested. Which inhibition [1] did it give?
Answer: Its inhibition is 19.9% (inactive).

Question: What does the source list for CN(C(=O)CNC(=O)/C=C/c1cccc(Cl)c1)C1CCS(=O)(=O)C1 (centres undefined)?
Answer: inhibition [1]: -5.46% (inactive); fold change [2]: 1.05

Question: Which inhibition [1] does the source give for CN(C(=O)CNC(=O)/C=C/c1cccc(Cl)c1)C1CCS(=O)(=O)CC1 here?
Answer: Its inhibition is 12.3% (inactive).
